According to patent publication US20060246149A1, “Antimicrobial pigments” (priority 2003, published 2006):

How the values were obtained:
Experiment in all cases: challenge test, germ count by Agar plates method
Assay type in all cases: cell-based
Conditions in all cases: 8% aqueous suspension
[1] = tested on: Staphylococcus aureus ATCC 6538
Description: (§1) A standard procedure to measure the anti-microbial activity of substances was used (challenge tests). A suspension of test organisms (10^5 to 10^6 germs/ml) is inoculated into a recipient containing already the substance to be tested. Samples of the inoculated suspension are taken and the number of germs is measured thanks to the Agar plates method. Germ counts is performed at t=0, t=24 h after the inoculation, t=48 h after the inoculation, t=7 days after the inoculation, t=14 days after the inoculation.
(§2) Sterile water containing 8% w/w of treated and untreated carriers were each investigated.

[2] = tested on: Escheria coli ATCC8739
Description: as §1, §2

[3] = tested on: Candida albicans ATCC 10231
Description: as §1, §2

[4] = tested on: Pseudomonas aeruginosa ATCC 9027
Description: as §1, §2

silver oxide [0.02% Ag2O]
0 germs/ml: Germs Number/ml after 24 h ([1]; 24 h) | Germs Number/ml after 48 h ([1]; 48 h) | Germs Number/ml after 14 d ([1]; 14 d) | Germs Number/ml after 24 h ([2]; 24 h) | Germs Number/ml after 48 h ([2]; 48 h) | Germs Number/ml after 7 d ([2]; 7 d) | Germs Number/ml after 14 d ([2]; 14 d) | Germs Number/ml after 48 h ([3]; 48 h) | Germs Number/ml after 7 d ([3]; 7 d) | Germs Number/ml after 14 d ([3]; 14 d) | Germs Number/ml after 24 h ([4]; 24 h) | Germs Number/ml after 48 h ([4]; 48 h) | Germs Number/ml after 7 d ([4]; 7 d) | Germs Number/ml after 14 d ([4]; 14 d)
